According to ChEMBL document CHEMBL1139533, “Structure-activity relationship studies of a series of antiviral and antibacterial aglycon derivatives of the glycopeptide antibiotics vancomycin, eremomycin, and dechloroeremomycin” (J Med Chem, 2005):
In brackets after ≈: the same amount, converted by molar mass.

Tests used:
Enterococcus faecium [1] = assay: Minimum inhibitory concentration against glycopeptide susceptible enterococci 568 Enterococcus faecium; format: functional
C3H/3T3 = assay: Minimal cytotoxic concentration to cause an alteration in C3H/3T3 cell line morphology; format: functional; conditions: Mus musculus
[2] = test system: Human immunodeficiency virus 1; assay: Effective concentration against human immunodeficiency virus type 1; format: functional, organism-based
CCRF-CEM = assay: Cytostatic activity to the compound against CEM cell line; format: functional, cell-based; conditions: Homo sapiens
Staphylococcus aureus [3] = assay: Minimum inhibitory concentration against glycopeptide intermediate-resistant 3797 Staphylococcus aureus; format: functional
[4] = test system: Staphylococcus epidermidis; assay: Minimum inhibitory concentration against 533 Staphylococcus epidermidis; format: functional
[5] = test system: Moloney murine sarcoma virus; assay: Effective concentration against Moloney sarcoma virus; format: functional, organism-based, Viruses
Enterococcus faecium [6] = assay: Minimum inhibitory concentration against glycopeptide resistant enterococci 569 Enterococcus faecium; format: functional
[7] = test system: Staphylococcus haemolyticus; assay: Minimum inhibitory concentration against 602 Staphylococcus haemolyticus; format: functional
L1210 = assay: Cytostatic activity against L1210 cell line; format: functional, cell-based; conditions: Mus musculus
Staphylococcus aureus [8] = assay: Minimum inhibitory concentration against glycopeptide intermediate-resistant 3798 Staphylococcus aureus; format: functional
Enterococcus faecalis [9] = assay: Minimum inhibitory concentration against glycopeptide resistant enterococci 560 Enterococcus faecalis; format: functional
Enterococcus faecalis [10] = assay: Minimum inhibitory concentration against 559 glycopeptide susceptible enterococci Enterococcus faecalis; format: functional
MOLT-4 = assay: Cytostatic activity to the compound against Molt4/C8 cell line; format: functional, cell-based; conditions: Homo sapiens
[11] = test system: Human immunodeficiency virus 2; assay: Effective concentration against human immunodeficiency virus type 2; format: functional, organism-based

CN[C@H](CC(C)C)C(=O)N[C@H]1C(=O)N[C@@H](CC(N)=O)C(=O)N[C@H]2C(=O)N[C@H]3C(=O)N[C@H](C(=O)N[C@H](C(=O)O)c4cc(O)cc(O)c4-c4cc3ccc4O)[C@H](O)c3ccc(cc3)Oc3cc2cc(c3O)Oc2ccc(cc2Cl)[C@H]1O
MIC (Enterococcus faecium [1]): 32 µg/mL (≈ 28.8 µM)
MCC (C3H/3T3): > 100 µg/mL
EC50 [2]: 50 µM
IC50 (CCRF-CEM): > 500 µM
MIC (Staphylococcus aureus [3]): > 64 µg/mL
MIC [4]: 32 µg/mL (≈ 28.8 µM)
EC50 [5]: > 100 µM
MIC (Enterococcus faecium [6]): > 128 µg/mL
MIC [7]: 16 µg/mL (≈ 14.4 µM)
IC50 (L1210): > 500 µM
MIC (Staphylococcus aureus [8]): > 64 µg/mL
MIC (Enterococcus faecalis [9]): > 128 µg/mL
MIC (Enterococcus faecalis [10]): 16 µg/mL (≈ 14.4 µM)
IC50 (MOLT-4): > 500 µM
EC50 [11]: ≥ 250 µM

CN[C@H](CC(C)C)C(=O)N[C@H]1C(=O)N[C@@H](CC(N)=O)C(=O)N[C@H]2C(=O)N[C@H]3C(=O)N[C@H](C(=O)N[C@H](C(=O)NCCCCCCCCCCN)c4cc(O)cc(O)c4-c4cc3ccc4O)[C@H](O)c3ccc(cc3)Oc3cc2cc(c3O)Oc2ccc(cc2Cl)[C@H]1O
MIC (Enterococcus faecium [1]): 8 µg/mL (≈ 6.33 µM)
MCC (C3H/3T3): 20 µg/mL
EC50 [2]: 8.5 µM
IC50 (CCRF-CEM): 202 µM
MIC (Staphylococcus aureus [3]): 8 µg/mL (≈ 6.33 µM)
MIC [4]: 8 µg/mL (≈ 6.33 µM)
EC50 [5]: > 4 µM
MIC (Enterococcus faecium [6]): 32 µg/mL (≈ 25.3 µM)
MIC [7]: 8 µg/mL (≈ 6.33 µM)
IC50 (L1210): ≥ 250 µM
MIC (Staphylococcus aureus [8]): 8 µg/mL (≈ 6.33 µM)
MIC (Enterococcus faecalis [9]): 32 µg/mL (≈ 25.3 µM)
MIC (Enterococcus faecalis [10]): 8 µg/mL (≈ 6.33 µM)
IC50 (MOLT-4): 196 µM
EC50 [11]: 25 µM

CN[C@H](CC(C)C)C(=O)N[C@H]1C(=O)N[C@@H](CC(N)=O)C(=O)N[C@H]2C(=O)N[C@H]3C(=O)N[C@H](C(=O)N[C@H](C(=O)NC4C5CC6CC(C5)CC4C6)c4cc(O)cc(O)c4-c4cc3ccc4O)[C@H](O)c3ccc(c(Cl)c3)Oc3cc2cc(c3O)Oc2ccc(cc2Cl)[C@H]1O (some centres not stated) [listing 1 of 2 here]
MIC (Enterococcus faecium [1]): 2 µg/mL (≈ 1.57 µM)
MCC (C3H/3T3): 100 µg/mL
MIC (Staphylococcus aureus [3]): 4 µg/mL (≈ 3.13 µM)
MIC [4]: 4 µg/mL (≈ 3.13 µM)
MIC (Enterococcus faecium [6]): 32 µg/mL (≈ 25.1 µM)
MIC [7]: 4 µg/mL (≈ 3.13 µM)
MIC (Staphylococcus aureus [8]): 4 µg/mL (≈ 3.13 µM)
MIC (Enterococcus faecalis [9]): 32 µg/mL (≈ 25.1 µM)
MIC (Enterococcus faecalis [10]): 2 µg/mL (≈ 1.57 µM)

CN[C@H](CC(C)C)C(=O)N[C@H]1C(=O)N[C@@H](CC(N)=O)C(=O)N[C@H]2C(=O)N[C@H]3C(=O)N[C@H](C(=O)N[C@H](C(=O)NCCCCCCCCCCN)c4cc(O)cc(O)c4-c4cc3ccc4O)[C@H](O)c3ccc(cc3)Oc3cc2cc(c3O)Oc2ccc(cc2)[C@H]1O
MIC (Enterococcus faecium [1]): 8 µg/mL (≈ 6.51 µM)
MCC (C3H/3T3): 100 µg/mL
EC50 [2]: 15 µM
IC50 (CCRF-CEM): 109 µM
MIC (Staphylococcus aureus [3]): 16 µg/mL (≈ 13 µM)
MIC [4]: 16 µg/mL (≈ 13 µM)
EC50 [5]: 14 µM
MIC (Enterococcus faecium [6]): 64 µg/mL (≈ 52.1 µM)
MIC [7]: 16 µg/mL (≈ 13 µM)
IC50 (L1210): 146 µM
MIC (Staphylococcus aureus [8]): 16 µg/mL (≈ 13 µM)
MIC (Enterococcus faecalis [9]): 32 µg/mL (≈ 26 µM)
MIC (Enterococcus faecalis [10]): 16 µg/mL (≈ 13 µM)
IC50 (MOLT-4): 106 µM
EC50 [11]: > 25 µM

CN[C@H](CC(C)C)C(=O)N[C@H]1C(=O)N[C@@H](CC(N)=O)C(=O)N[C@H]2C(=O)N[C@H]3C(=O)N[C@H](C(=O)N[C@H](C(=O)NCC45CC6CC(CC(C6)C4)C5)c4cc(O)cc(O)c4-c4cc3ccc4O)[C@H](O)c3ccc(c(Cl)c3)Oc3cc2cc(c3O)Oc2ccc(cc2Cl)[C@H]1O
EC50 [2]: 3 µM
IC50 (CCRF-CEM): ≥ 250 µM
EC50 [5]: 10 µM
IC50 (L1210): ≥ 250 µM
IC50 (MOLT-4): 72 µM
EC50 [11]: 9.5 µM

CN[C@H](CC(C)C)C(=O)N[C@H]1C(=O)N[C@@H](CC(N)=O)C(=O)N[C@H]2C(=O)N[C@H]3C(=O)N[C@H](C(=O)N[C@H](C(=O)NCCCCCCCCCCN)c4cc(O)cc(O)c4-c4cc3ccc4O)[C@H](O)c3ccc(c(Cl)c3)Oc3cc2cc(c3O)Oc2ccc(cc2Cl)[C@H]1O
MIC (Enterococcus faecium [1]): 2 µg/mL (≈ 1.54 µM)
MCC (C3H/3T3): ≥ 20 µg/mL
MIC (Staphylococcus aureus [3]): 2 µg/mL (≈ 1.54 µM)
MIC [4]: 2 µg/mL (≈ 1.54 µM)
MIC (Enterococcus faecium [6]): 16 µg/mL (≈ 12.3 µM)
MIC [7]: 1 µg/mL (≈ 0.77 µM)
MIC (Staphylococcus aureus [8]): 2 µg/mL (≈ 1.54 µM)
MIC (Enterococcus faecalis [9]): 16 µg/mL (≈ 12.3 µM)
MIC (Enterococcus faecalis [10]): 0.5 µg/mL (≈ 0.385 µM)

CN[C@H](CC(C)C)C(=O)N[C@H]1C(=O)N[C@@H](CC(N)=O)C(=O)N[C@H]2C(=O)N[C@H]3C(=O)N[C@H](C(=O)N[C@H](C(=O)O)c4cc(O)cc(O)c4-c4cc3ccc4O)[C@H](O)c3ccc(c(Cl)c3)Oc3cc2cc(c3O)Oc2ccc(cc2Cl)[C@H]1O
MIC (Enterococcus faecium [1]): 4 µg/mL (≈ 3.5 µM)
MCC (C3H/3T3): > 100 µg/mL
MIC (Staphylococcus aureus [3]): 4 µg/mL (≈ 3.5 µM)
MIC [4]: 4 µg/mL (≈ 3.5 µM)
MIC (Enterococcus faecium [6]): > 64 µg/mL
MIC [7]: 8 µg/mL (≈ 6.99 µM)
MIC (Staphylococcus aureus [8]): 4 µg/mL (≈ 3.5 µM)
MIC (Enterococcus faecalis [9]): > 64 µg/mL
MIC (Enterococcus faecalis [10]): 2 µg/mL (≈ 1.75 µM)

NC(=O)C[C@@H]1NC(=O)[C@H](N)[C@H](O)c2ccc(c(Cl)c2)Oc2cc3cc(c2O)Oc2ccc(cc2)[C@@H](O)[C@@H]2NC(=O)[C@H](NC(=O)[C@@H]3NC1=O)c1ccc(O)c(c1)-c1c(O)cc(O)cc1[C@@H](C(=O)NCC13CC4CC(CC(C4)C1)C3)NC2=O
MIC (Enterococcus faecium [1]): > 64 µg/mL
EC50 [2]: 5.5 µM
IC50 (CCRF-CEM): > 250 µM
MIC (Staphylococcus aureus [3]): > 32 µg/mL
MIC [4]: > 32 µg/mL
MIC (Enterococcus faecium [6]): > 64 µg/mL
MIC [7]: > 32 µg/mL
IC50 (L1210): 175 µM
MIC (Staphylococcus aureus [8]): > 32 µg/mL
MIC (Enterococcus faecalis [9]): > 64 µg/mL
MIC (Enterococcus faecalis [10]): > 64 µg/mL
IC50 (MOLT-4): > 250 µM
EC50 [11]: 3.5 µM

CN[C@H](CC(C)C)C(=O)N[C@H]1C(=O)N[C@@H](CC(N)=O)C(=O)N[C@H]2C(=O)N[C@H]3C(=O)N[C@H](C(=O)N[C@H](C(=O)NC4C5CC6CC(C5)CC4C6)c4cc(O)cc(O)c4-c4cc3ccc4O)[C@H](O)c3ccc(c(Cl)c3)Oc3cc2cc(c3O)Oc2ccc(cc2Cl)[C@H]1O (some centres not stated) [listing 2 of 2 here]
EC50 [2]: 3 µM
IC50 (CCRF-CEM): > 250 µM
EC50 [5]: 13 µM
IC50 (L1210): ≥ 250 µM
IC50 (MOLT-4): ≥ 250 µM
EC50 [11]: 8.5 µM
